From article PMC11306024, “Novel metabolite madeirone and neomarinone extracted from Streptomyces aculeoletus as marine antibiofilm and antifouling agents” (Frontiers in Chemistry, 2024)
Read-outs that look alike come from different tables or passages of the source.

Columns and labels:
[1] = Mussel larvae acute toxicity (mortality); conditions: Mytilus galloprovincialis, in vivo, other: waterborne exposure in 24-well plates; 15 h acute exposure
Experimental: The in vivo antimacrofouling activity of compounds (1) and (2) was evaluated against mussel M. galloprovincialis adhesive larvae (plantigrades) in an acute bioassay. Juvenile mussel aggregates were harvested from the intertidal rocky shore during low spring tides at Memória beach, Matosinhos, Portugal. In the laboratory, precisely before the bioassays, mussel plantigrade larvae were meticulously screened and isolated from the juvenile aggregates using a binocular microscope (Olympus SZX2-ILLT, Hamburg, Germany). The isolated larvae were then washed with filtered seawater to eliminate organic debris, and competent plantigrade larvae, characterized by foot exploratory behavior, were selected for the exposure bioassays, following established protocols ([Almeida et al., 2017]; [Almeida et al., 2020]; [Antunes et al., 2019]; [Mabrouk et al., 2020]). Plantigrades were exposed in 24-well polystyrene plates for 15 h in darkness at 18°C. DMSO served as the solvent for the testing compounds in stock and working solutions. The DMSO concentration in the tested solutions was consistently maintained at 0.1%. […] The anti-settlement bioactivity was assessed based on the presence or absence of fixed byssal threads produced by each individual larva for all tested conditions. […] EC50 values for each compound were calculated using Probit regression analysis. […]

[2] = tested on: Daphnia magna; conditions: 100 µg/mL
Experimental: The in vivo evaluation of compounds (1) and (2) for acute toxicity was performed towards marine bacterium Aliivibrio fischeri, and planktonic crustacean Daphnia magna. The chronic ecotoxicity tests were evaluated using algae Pseudokirchneriella subcapitata and Phaeodactylum tricornutum.
The immobilization of D. magna at 24 h and 48 h was studied following a micro adaptation of the OECD Guideline 202 procedures (“Daphnia sp., Acute Immobilisation Test and Reproduction Test”), using the Daphtoxkit F (Microbiotests, Gent, Belgium). Firstly, the ISO matrix medium was prepared, aerated and adjusted to pH 7. Next, the neonate daphnids were incubated for 72 h at 20 ± 1°C with light and fed spirulina 2 h prior to use, according to the manufacturer’s instructions. […] For the miniaturization of the procedure, one daphnid neonate was exposed to each compound in 10 mL sterile tubes containing 2 mL of ISO matrix medium, with the compounds at the determined concentrations. The assays were performed in triplicate.

SMILES: CC1=CCC[C@@H](C)[C@]1(C)CC[C@@]1(C)c2c(O)cc3c(c2O[C@@H]1C)C(=O)C=C(CO)C3=O (relative stereo) [compound 1, madeirone]
- LC50 at 15 h [1]: > 10 µg/mL

SMILES: CC1=CCC[C@@H](C)[C@]1(C)CC[C@@]1(C)c2c(O)cc3c(c2O[C@@H]1C)C(=O)C(C)=C(O)C3=O [compound 2, neomarinone]
- Inhibition (%) D. magna (immobilization) ([2]; listed as Neomarinone (2)): 33.0%
- Inhibition (%) D. magna (immobilization) ([2]; listed as neomarinone (2)): 33%
- LC50 at 15 h [1]: > 4 µg/mL
